Assay results reported in patent US9017646B2, “Process of evaluating blood-brain barrier permeability of stroke rat by using fluorescent substance” (Institute of Nuclear Energy Research, Atomic Energy Council, priority 2012, dated 2015).

System: blood-brain barrier of stroke rat
Assay: Blood-brain barrier permeability of stroke rat (middle cerebral artery occlusion model) by Evans blue dye, optical image and IVIS 100 fluorescence imaging of the whole brain
Format: in vivo, SD (Sprague Dawley) rat
Settings: for presence of blue dye in brain tissue (optical image, FIG. 2): 30 minutes distribution, transcardial perfusion
From the text: FIG. 1 is a schematic view of an evaluation process of the present invention. As shown, the invention is a process of evaluating the blood-brain barrier permeability of a stroke rat by using fluorescent substance. The process of the invention uses Evans blue dye having spontaneous fluorescence properties, in combination with the use of a new non-invasive in vivo imaging system (IVIS), to obtain fluorescent signals so as to assess the change in the blood-brain barrier permeability of rodents after a cerebral artery stroke model surgery. In operation, an Evans blue dye 11 is injected into a stroke rat 1 of middle cerebral artery occlusion model. A non-invasive in vivo imaging system 12 is used to detect the fluorescence distribution of the whole brain, and obtain images combined by the fluorescence images and optical images for the whole brain tissue. Thereby, the change in the blood-brain barrier permeability of the stroke rat can be completely realized.
FIG. 2 is an optical image of the whole brain tissue after the injection of Evans blue dye according to the invention. FIG. 3 is an integrated image combined the fluorescence images with the optical images by using an IVIS 100 system according to the invention. As shown, in a preferred embedment, the invention uses a SD (Sprague Dawley) rat as the stroke animal model subject to transient bilateral common carotid artery and right middle cerebral artery ligation. After the rat is anesthetized, the surgery procedure is described roughly as follows. The skull of the rat is opened by drilling in order to find the right middle cerebral artery. A 10-0 needle is used to take the right middle cerebral artery and rotate it 90 degrees. It is ensured that the blood cannot flow smoothly under the observation by a microscope. Then, both sides of the common carotid artery are subject to ligation for 90 minutes. After the stitches have been removed, wounds are sutured to allow the rat to be recovered.
Three groups are provided in the experiment, in which a sham group is a rat whose skull is opened without the bilateral common carotid artery and right middle cerebral artery ligation so as to exclude the impact caused by drilling the skull; a control group is the blank rat without any surgery; and a surgery group is a stroke rat whose skull is opened to perform the middle cerebral artery ligation.
Evans blue dye is dissolved in saline and injected intravenously into the rat via its tail 24 hours after surgery. After distribution for 30 minutes, the rat is anesthetized for transcardial perfusion in order to wash away the dye within the blood vessels. The IVIS 100 (Caliper) system is used to detect the fluorescence distribution of the whole brain tissue. The Evans blue dye can be excited by the light of 620 nanometer (nm) wavelengths to emit the light of 680 nm wavelength which can be detected by the IVIS 100 system and further converted into images (as shown in FIG. 3).

With `Cc1cc(-c2ccc(/N=N/c3ccc4c(S(=O)(=O)O)cc(S(=O)(=O)O)c(N)c4c3O)c(C)c2)ccc1/N=N/c1ccc2c(S(=O)(=O)O)cc(S(=O)(=O)O)c(N)c2c1O` [Evans blue dye, Evans blue] the “fluorescence of whole brain tissue (IVIS 100, excitation 620 nm, emission 680 nm, FIG. 3)” value (shortened to “fluorescence of whole brain tissue”) (control group (blank rat without any surgery)) was “fluorescence is not obvious in the brain tissue”, the “presence of blue dye in brain tissue (optical image, FIG. 2)” value (from here on “presence of blue dye in brain tissue”) (control group (blank rat without any surgery), dye i.v. via tail) was “no presence of the blue dye in the brain tissue” and the “fluorescence of whole brain tissue” value (sham group (skull opened without ligation)) was “fluorescence is not obvious in the brain tissue”. The “presence of blue dye in brain tissue” value (sham group (skull opened without ligation), dye i.v. via tail 24 hours after surgery) was “no presence of the blue dye in the brain tissue”, the “fluorescence of whole brain tissue” value (surgery group (stroke rat), 24 hours after stroke surgery) was “fluorescence signals are detected in the right brain” and the “presence of blue dye in brain tissue” value (surgery group (stroke rat), dye i.v. via tail 24 hours after surgery) was “leak into the interstitial cells of the right brain”.
